Molecular target: PRMT1 (Rattus norvegicus, UniProt Q63009)
Assay: scintillation proximity assay of 3H-SAM methylation of biotinylated H4 peptide
Type: biochemical

PRMT1, sequence (Q63009 whole entry): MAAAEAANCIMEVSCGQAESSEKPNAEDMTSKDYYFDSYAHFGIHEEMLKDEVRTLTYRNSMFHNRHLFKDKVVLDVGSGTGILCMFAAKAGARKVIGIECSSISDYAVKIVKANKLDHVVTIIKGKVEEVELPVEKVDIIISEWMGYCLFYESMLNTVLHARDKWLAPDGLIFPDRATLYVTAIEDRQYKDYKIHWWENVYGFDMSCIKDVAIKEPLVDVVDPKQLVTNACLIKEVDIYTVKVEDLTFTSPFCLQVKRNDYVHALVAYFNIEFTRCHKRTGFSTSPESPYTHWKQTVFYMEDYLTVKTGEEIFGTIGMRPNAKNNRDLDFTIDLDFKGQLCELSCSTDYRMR

IC50: 300 nM
Structure (SMILES): Nc1ncnc2c1ncn2[C@@H]1O[C@H](CSCC[C@H](N)C(=O)O)[C@@H](O)[C@H]1O [SAH, S-adenosyl-L-homocysteine]
